Blank lines part the entries; values can stand above or below the compound they belong to.
Experiments:
293T cells = experiment: Metabolic activity, WST-1 assay, 293T cells; type: cell-based; settings: metabolic measurements, WST-1 reagent
Method: FIG. 20A-C. N16 inhibition is virus-specific. A) N16 IC50 for Hela and 293T cells. […] Values were calculated by measuring metabolic activity (WST-1 Assay, Roche Applied Science) after cells were grown for 24 hr in N16. Data points represent the mean of 2 assays, 3 time points each for each cell line. […] Values in the absence or presence of N16 (50 uM) were 12% and 13%, respectively). C) N16 effect on EGF-stimulated EFGR degradation. Cells maintained for 24 hr in media containing DMSO alone or DMSO and N16 were stimulated with EGF ligand for a 90 min period and then assessed for EGFR steady-state level by Western analysis. EGFR levels for unstimulated and stimulated sample pairs are shown. A) n=2; B) n=2; C) n=2.
FIG. 27A-C. Effect of N-Acetyl Cysteine (NAC) on N16-mediated inhibition of VLP production and intracellular Gag accumulation. […] A concentration of 3 mM NAC was therefore used to test the effect of the antioxidative reagent on the N16 inhibitory effect. N16 (0, 12, 25, 50, 75, and 100 uM) was added 8.5 hr prior to transfection with pNL4-3ΔEnv. Cells were harvested 16 hr later. […] C) Quantitative analysis. n=2.
Cells were grown in 96-well trays for 24 hr with increasing levels of drug, metabolic activity was measured using WST-1colorimetric assay (Roche), and IC50 values were calculated (Prism 6, Graph Pad Software Inc.).

proteasome = proteasome (Homo sapiens, UniProt P20618+P28074); settings: Gelman et al.; cited from earlier work
[1] = Conversion of prazoles to sulfenamide / half-life; type: physicochemical
Description: To measure sulfenamide formation: Dissolve each compound in water/buffer and measure the formation of colored compounds by UV-visible absorption, since the initial compound is colorless and the final compound (the sulfenamide dimer) is colored.

Tsg101 UEV domain = molecular target: T1, Tsg101 UEV domain (Homo sapiens, UniProt Q99816); experiment: NMR / LC-MS binding of compound to Tsg101 UEV domain
T1 construct: Tsg101 UEV domain (residues 2-145) was encoded in a pET-28b vector; His6-TEV site (N, cleaved yes); made in house; host or cells: E. coli Rosetta 2 (DE3) pLysS
T1 sequence (Q99816 2-145): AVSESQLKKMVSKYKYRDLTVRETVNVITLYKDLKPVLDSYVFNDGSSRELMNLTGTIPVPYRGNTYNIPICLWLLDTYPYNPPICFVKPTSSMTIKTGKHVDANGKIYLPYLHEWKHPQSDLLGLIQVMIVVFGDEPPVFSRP
Method: N16 (20 mM solution, DMSO) was added to Tsg101 UEV domain in a 10:1 ratio (N16 excess).
For binding studies using NMR spectroscopy, the following complexes were made: Tsg101 UEV-N16, UEV-PTAP, UEV-Ub, UEV-N16-PTAP, and UEV-N16-Ub, all in Tsg101 NMR buffer: 20 mM potassium phosphate, 50 mM NaCl, pH 5.8, with UEV concentration of 200 μM.

Tsg101 = molecular target: T2, Tsg101 (Homo sapiens, UniProt Q99816); experiment: NWU screening / in vitro binding assay
T2 sequence (Q99816 2-145 limits assumed): T1 sequence (Q99816 2-145)
Description: Pantoprazole, Lansoprazole/Dexlansoprazole (dexlansoprazole is the active enantiomer of the racemic lansoprazole), and Rabeprazole were in the NWU screen but were not considered hits.

concentration up to which 293T cells were robust (293T cells): at least 4 mM
SMILES: CC(=O)N[C@@H](CS)C(=O)O [NAC, N-Acetyl Cysteine]

SMILES: CC(C)C[C@H](NC(=O)[C@H](Cc1ccccc1)NC(=O)c1cnccn1)B(O)O [bortezomib]
concentration giving proteasome inhibition, previous studies (proteasome): ≥ 5 nM

slowness of sulfenamide conversion relative to Rabeprazole [1]: ~2 ×
residue bound in Tsg101 UEV (NMR and fluorescence perturbances) (Tsg101 UEV domain): bind to residue C73
binding in the NWU screening assay (Tsg101): bound weakly
SMILES: Cc1c(OCC(F)(F)F)ccnc1C[S+]([O-])c1nc2ccccc2[nH]1 (racemic) [Lansoprazole]
